The values that follow come from patent publication US7273848B2, “Apolipoprotein A-I agonists and their use to treat dyslipidemic disorders” (priority 1997, dated 2007).

Non-standard residues stand in square brackets, D forms with d. Residues, ends and D or L forms follow the SMILES beside them. No end group written: not given here. Orn = NCCC[C@H](N)C(=O)O; Aib = CC(C)(N)C(=O)O

The target in this experiment is T1, LCAT (purified from human plasma) (Homo sapiens, UniProt P04180).
T1 construct: from tissue; host or cells: human plasma
T1 sequence (P04180 25-440): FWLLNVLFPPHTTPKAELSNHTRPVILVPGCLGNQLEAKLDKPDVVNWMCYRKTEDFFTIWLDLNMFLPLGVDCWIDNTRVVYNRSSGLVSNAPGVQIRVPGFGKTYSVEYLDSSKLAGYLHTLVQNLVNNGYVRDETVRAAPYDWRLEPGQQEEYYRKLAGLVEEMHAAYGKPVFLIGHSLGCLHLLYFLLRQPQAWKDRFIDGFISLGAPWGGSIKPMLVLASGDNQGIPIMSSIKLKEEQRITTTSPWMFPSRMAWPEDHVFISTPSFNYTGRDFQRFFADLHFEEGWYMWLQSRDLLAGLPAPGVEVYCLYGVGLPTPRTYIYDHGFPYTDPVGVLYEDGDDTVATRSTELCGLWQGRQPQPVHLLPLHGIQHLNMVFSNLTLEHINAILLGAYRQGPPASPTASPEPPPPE
As to the kind of experiment: LCAT activation assay. As to conditions: LCAT activation as compared with native human ApoA-I (= 100%), equivalent masses. In kind it is biochemical. The procedure: The peptides synthesized as described in Section 6, supra, were analyzed in vitro for their ability to activate LCAT. In the LCAT assay, substrate vesicles (small unilamellar vesicles or “SUVs”) composed of egg phophatidylcholine (EPC) or 1-Palmitoyl-2-oleyl-phosphatidyl-choline (POPC) and radiolabelled cholesterol are preincubated with equivalent masses either of peptide or ApoA-I (isolated from human plasma). The reaction is initiated by addition of LCAT (purified from human plasma). Native ApoA-I, which was used as positive control, represents 100% activation activity. “Specific activity” (i.e., units of activity (LCAT activation)/unit of mass) of the peptides can be calculated as the concentration of peptide that achieves maximum LCAT activation. For example, a series of concentrations of the peptide (e.g., a limiting dilution) can be assayed to determine the “specific activity” for the peptide—the concentration which achieves maximal LCAT activation (i.e., percentage conversion of cholesterol to cholesterol ester) at a specific timepoint in the assay (e.g., 1 hr.). When plotting percentage conversion of cholesterol at, e.g., 1 hr., against the concentration of peptide used, the “specific activity” can be identified as the concentration of peptide that achieves a plateau on the plotted curve.
The vesicles used in the LCAT assay are SUVs composed of egg phosphatidylcholine (EPC) or 1-palmitoyl-2-oleyl-phosphatidylcholine (POPC) and cholesterol with a molar ratio of 20:1. To prepare a vesicle stock solution sufficient for 40 assays, 7.7 mg EPC (or 7.6 mg POPC; 10 μmol), 78 μg (0.2 μmol) 4-^14C-cholesterol, 116 μg cholesterol (0.3 μmol) are dissolved in 5 ml xylene and lyophilized. Thereafter 4 ml of assay buffer is added to the dry powder and sonicated under nitrogen atmosphere at 4° C. Sonication conditions: Branson 250 sonicator, 10 mm tip, 6×5 minutes; Assay buffer: 10 mM Tris, 0.14 M NaCl, 1 mM EDTA, pH 7.4). The sonicated mixture is centrifuged 6 times for 5 minutes each time at 14,000 rpm (16,000×g) to remove titanium particles. The resulting clear solution is used for the enzyme assay.
For the LCAT purification, dextran sulfate/Mg^2+ treatment of human plasma is used to obtain lipoprotein deficient serum (LPDS), which is sequentially chromatographed on Phenylsepharose, Affigelblue, ConcanavalinA sepharose and anti-ApoA-I affinity chromatography, as summarized for a representative purification in TABLE IX, below: […]
`CC(C)C[C@H](NC(=O)[C@H](C)NC(=O)[C@H](CCC(=O)O)NC(=O)[C@H](CC(C)C)NC(=O)C(C)(C)NC(=O)[C@H](Cc1c[nH]c2ccccc12)NC(=O)[C@H](CC(N)=O)NC(=O)[C@H](CC(C)C)NC(=O)[C@H](CC(C)C)NC(=O)[C@H](CCC(=O)O)NC(=O)[C@H](CCCNC(=N)N)NC(=O)[C@H](Cc1ccccc1)NC(=O)[C@H](CC(C)C)NC(=O)[C@H](CC(=O)O)NC(=O)[C@H](CC(C)C)NC(=O)[C@@H](NC(=O)[C@@H]1CCCN1)C(C)C)C(=O)N[C@@H](CCCCN)C(=O)N[C@@H](CCC(N)=O)C(=O)N[C@@H](CCCCN)C(=O)N[C@@H](CC(C)C)C(=O)N[C@@H](CCCCN)C(=O)O` [compound 101, PVLDLFRELLNWXLEALKQKLK] (H-PVLDLFRELLNW[Aib]LEALKQKLK-OH): the “ACTIVITY (%) LCAT” value was 2%.

On to PVFELFENLLERLLDALQKKLK [peptide 152], for which the “ACTIVITY (%) LCAT” value was determined as 50%.

Consider `CC(C)C[C@H](NC(=O)[C@H](C)NC(=O)[C@H](CCC(=O)O)NC(=O)[C@H](CC(C)C)NC(=O)C(C)(C)NC(=O)[C@H](CCC(=O)O)NC(=O)[C@H](CC(N)=O)NC(=O)[C@H](CC(C)C)NC(=O)[C@H](CCCCN)NC(=O)[C@H](CCC(=O)O)NC(=O)[C@H](CCCNC(=N)N)NC(=O)[C@H](Cc1ccccc1)NC(=O)[C@H](CCC(=O)O)NC(=O)[C@H](CC(=O)O)NC(=O)[C@H](CC(C)C)NC(=O)[C@H](Cc1c[nH]cn1)NC(=O)[C@@H]1CCCN1)C(=O)N[C@@H](CCCCN)C(=O)N[C@@H](CCC(N)=O)C(=O)N[C@@H](CCCCN)C(=O)N[C@@H](CC(C)C)C(=O)N[C@@H](CCCCN)C(=O)O` [compound 116, PHLDEFREKLNEXLEALKQKLK] (H-PHLDEFREKLNE[Aib]LEALKQKLK-OH), for which the “ACTIVITY (%) LCAT” value is reported as 0%.

Turning to PVLELFENLLERLFDALQKKLK [peptide 147], the “ACTIVITY (%) LCAT” value was determined as 76%.

In the case of PVLDAFRELGEALLQLKK [compound 226], the “ACTIVITY (%) LCAT” value is 1%.

For PVLDLFRELLNELLE [compound 97], the “ACTIVITY (%) LCAT” value is on record as 4%.

Take PVLDLFDNLLDRLLDLLNKKLK [compound 173]: the “ACTIVITY (%) LCAT” value was 15%.

In the case of “Ac-PVLDLFREWLEELKQKLK-NH2 [compound 205]”, the “ACTIVITY (%) LCAT” value worked out at 60%.

In the case of “GIKKFLGSIWKFIKAFVG [peptide 242, reference compound]”, the “ACTIVITY (%) LCAT” value was 7%.

Consider `CC(C)C[C@H](NC(=O)[C@H](CCCCN)NC(=O)[C@H](CCC(N)=O)NC(=O)[C@H](CCCCN)NC(=O)C(C)(C)NC(=O)[C@H](C)NC(=O)[C@H](CCC(=O)O)NC(=O)[C@H](CC(C)C)NC(=O)[C@H](CCC(=O)O)NC(=O)[C@H](CCC(=O)O)NC(=O)[C@H](CC(N)=O)NC(=O)[C@H](CC(C)C)NC(=O)[C@H](CCCCN)NC(=O)[C@H](CCC(=O)O)NC(=O)[C@H](CCCNC(=N)N)NC(=O)[C@H](Cc1ccccc1)NC(=O)[C@H](CCC(=O)O)NC(=O)[C@H](CC(=O)O)NC(=O)[C@H](CC(C)C)NC(=O)[C@@H](NC(=O)[C@@H]1CCCN1)C(C)C)C(=O)N[C@@H](CCCCN)C(=O)O` [compound 119, PVLDEFREKLNEELEAXKQKLK] (H-PVLDEFREKLNEELEA[Aib]KQKLK-OH), for which the “ACTIVITY (%) LCAT” value was determined as 0%.

Take “Ac-GVLDLFRELLEELKQKLK-NH2 [compound 198]”: the “ACTIVITY (%) LCAT” value came to 80%.

As to PVLELFKELLQELLEALKQKLK [compound 17], the “ACTIVITY (%) LCAT” value worked out at 59%.

Consider PVLELFLNLLERLGDALQKKLK [compound 172], for which the “ACTIVITY (%) LCAT” value was 16%.

On to `CC(=O)N1CCC[C@H]1C(=O)N[C@H](C(=O)N[C@@H](CC(C)C)C(=O)N[C@@H](CC(=O)O)C(=O)N[C@@H](CC(C)C)C(=O)N[C@@H](Cc1ccccc1)C(=O)N[C@@H](CCCNC(=N)N)C(=O)N[C@@H](CCC(=O)O)C(=O)N[C@@H](CC(C)C)C(=O)N[C@@H](CC(C)C)C(=O)N[C@@H](CCC(=O)O)C(=O)N[C@@H](CCC(=O)O)C(=O)N[C@@H](CC(C)C)C(=O)N[C@@H](CCCN)C(=O)N[C@@H](CCC(N)=O)C(=O)N[C@@H](CCCN)C(=O)N[C@@H](CC(C)C)C(=O)N[C@@H](CCCN)C(N)=O)C(C)C` [compound 211, PVLDLFRELLEELOQOLO] (Ac-PVLDLFRELLEEL[Orn]Q[Orn]L[Orn]-NH2), for which the “ACTIVITY (%) LCAT” value is reported as 45%.

As for PVLDLFENLLERLLDALQKKLK [compound 159], the “ACTIVITY (%) LCAT” value was found to be 28%.

`CC(C)C[C@H](NC(=O)[C@H](C)NC(=O)[C@H](CCCCN)NC(=O)[C@H](CC(C)C)NC(=O)C(C)(C)NC(=O)[C@H](CCC(=O)O)NC(=O)[C@H](CC(N)=O)NC(=O)[C@H](CC(C)C)NC(=O)[C@H](CCCCN)NC(=O)[C@H](CCC(=O)O)NC(=O)[C@H](CCCNC(=N)N)NC(=O)[C@H](Cc1ccccc1)NC(=O)[C@H](CCC(=O)O)NC(=O)[C@H](CC(=O)O)NC(=O)[C@H](CC(C)C)NC(=O)[C@@H](NC(=O)[C@@H]1CCCN1)C(C)C)C(=O)N[C@@H](CCCCN)C(=O)N[C@@H](CCC(N)=O)C(=O)N[C@@H](CCCCN)C(=O)N[C@@H](CC(C)C)C(=O)N[C@@H](CCCCN)C(=O)O` [compound 93, PVLDEFREKLNEXLKALKQKLK] (H-PVLDEFREKLNE[Aib]LKALKQKLK-OH): the “ACTIVITY (%) LCAT” value is listed as 5%.

With PVLELFLNLLEKLLDALQKKLK [compound 166], the “ACTIVITY (%) LCAT” value stood at 22%.

As to PVLDLFRELLNELLEALQKKLK [peptide 24], the “ACTIVITY (%) LCAT” value came out at 53%.

Consider `CC(C)C[C@H](NC(=O)[C@H](C)NC(=O)[C@H](CCC(=O)O)NC(=O)[C@H](CC(C)C)NC(=O)C(C)(C)NC(=O)[C@H](CCC(=O)O)NC(=O)[C@H](CC(N)=O)NC(=O)[C@H](CC(C)C)NC(=O)[C@H](CCCCN)NC(=O)[C@H](CCC(=O)O)NC(=O)[C@H](CCCNC(=N)N)NC(=O)[C@H](Cc1ccccc1)NC(=O)[C@H](Cc1ccccc1)NC(=O)[C@H](CC(=O)O)NC(=O)[C@H](CC(C)C)NC(=O)[C@@H](NC(=O)[C@@H]1CCCN1)C(C)C)C(=O)N[C@@H](CCCCN)C(=O)N[C@@H](CCC(N)=O)C(=O)N[C@@H](CCCCN)C(=O)N[C@@H](CC(C)C)C(=O)N[C@@H](CCCCN)C(=O)O` [compound 63, PVLDFFREKLNEXLEALKQKLK] (H-PVLDFFREKLNE[Aib]LEALKQKLK-OH), for which the “ACTIVITY (%) LCAT” value came out at 16%.

With `CC(C)C[C@@H](NC(=O)[C@@H](C)NC(=O)[C@@H](CC(=O)O)NC(=O)[C@@H](CC(C)C)NC(=O)[C@@H](CC(C)C)NC(=O)[C@@H](CCCNC(=N)N)NC(=O)[C@@H](CCC(=O)O)NC(=O)[C@@H](CC(C)C)NC(=O)[C@@H](CC(C)C)NC(=O)[C@@H](CC(N)=O)NC(=O)[C@@H](CCC(=O)O)NC(=O)[C@@H](Cc1ccccc1)NC(=O)[C@@H](CC(C)C)NC(=O)[C@@H](CCC(=O)O)NC(=O)[C@@H](CC(C)C)NC(=O)[C@H](NC(=O)[C@H]1CCCN1)C(C)C)C(=O)N[C@H](CCC(N)=O)C(=O)N[C@H](CCCCN)C(=O)N[C@H](CCCCN)C(=O)N[C@H](CC(C)C)C(=O)N[C@H](CCCCN)C(=O)O` [compound 174, pvlelfenllerlldalqkklk] (H-[dP][dV][dL][dE][dL][dF][dE][dN][dL][dL][dE][dR][dL][dL][dD][dA][dL][dQ][dK][dK][dL][dK]-OH), the “ACTIVITY (%) LCAT” value stood at 13%.

PVLDEFREKLNEELEWLKQKLK [compound 122]: the “ACTIVITY (%) LCAT” value is given as 0%.

With `CC(C)C[C@H](NC(=O)[C@H](C)NC(=O)[C@H](CCC(=O)O)NC(=O)C(C)(C)NC(=O)C(C)(C)NC(=O)[C@H](CCC(=O)O)NC(=O)[C@H](CC(N)=O)NC(=O)[C@H](CC(C)C)NC(=O)[C@H](CCCCN)NC(=O)[C@H](CCC(=O)O)NC(=O)[C@H](CCCNC(=N)N)NC(=O)[C@H](Cc1ccccc1)NC(=O)[C@H](CCC(=O)O)NC(=O)[C@H](CC(=O)O)NC(=O)[C@H](CC(C)C)NC(=O)[C@@H](NC(=O)[C@@H]1CCCN1)C(C)C)C(=O)N[C@@H](CCCCN)C(=O)N[C@@H](CCC(N)=O)C(=O)N[C@@H](CCCCN)C(=O)N[C@@H](CC(C)C)C(=O)N[C@@H](CCCCN)C(=O)O` [compound 110, PVLDEFREKLNEXXEALKQKLK] (H-PVLDEFREKLNE[Aib][Aib]EALKQKLK-OH), the “ACTIVITY (%) LCAT” value is listed as 0%.
